Source: patent US6039950A, “Pharmaceutical grade saw palmetto” (priority 1997, dated 2000)
Like-named read-outs stand apart in the source and are kept apart here.

What was measured:
[1] = cited from earlier work; for time to degradation in oil preparations: exposed to light, "in as little as"
5-lipoxygenase = molecular target: T1, 5-lipoxygenase (Rattus norvegicus, UniProt P12527); assay: biochemical; conditions: for 5-Lipo activity: screened at 3×10^-5 (30 μM)
T1 sequence (P12527 1-673): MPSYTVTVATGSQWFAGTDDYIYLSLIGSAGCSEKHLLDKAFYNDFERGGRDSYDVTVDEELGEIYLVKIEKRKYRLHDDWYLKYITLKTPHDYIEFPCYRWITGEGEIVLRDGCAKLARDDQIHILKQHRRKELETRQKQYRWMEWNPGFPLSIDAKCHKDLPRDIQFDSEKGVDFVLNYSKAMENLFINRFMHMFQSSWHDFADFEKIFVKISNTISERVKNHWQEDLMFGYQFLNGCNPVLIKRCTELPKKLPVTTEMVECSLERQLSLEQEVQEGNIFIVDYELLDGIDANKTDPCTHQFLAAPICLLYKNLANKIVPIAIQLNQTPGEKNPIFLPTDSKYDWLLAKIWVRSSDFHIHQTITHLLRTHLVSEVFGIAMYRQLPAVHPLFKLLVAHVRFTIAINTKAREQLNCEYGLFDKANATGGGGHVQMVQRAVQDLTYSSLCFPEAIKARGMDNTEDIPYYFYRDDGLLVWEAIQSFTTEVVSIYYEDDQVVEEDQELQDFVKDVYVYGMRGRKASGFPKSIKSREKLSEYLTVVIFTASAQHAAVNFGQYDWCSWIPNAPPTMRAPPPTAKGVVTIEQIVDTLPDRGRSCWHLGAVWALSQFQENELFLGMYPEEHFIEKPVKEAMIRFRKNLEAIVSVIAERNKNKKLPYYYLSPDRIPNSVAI
Description: The procedure was as follows. 5-lipoxygenase assays were run using a crude enzyme preparation from rat basophilic leukemia cells (RBL-1). Test compounds were pre-incubated with the enzyme for 5 minutes at room temperature and the reaction was initiated by addition of substrate (arachidonic acid). Following an 8 minute incubation at room temperature, the reaction was terminated by addition of citric acid, and levels of 5-HETE were determined by 5-HETE radioimmunoassay (RIA).
Compounds and fractions were screened at an initial concentration of 3×10^-5.

Cyclooxygenase-1 = molecular target: T2, Cyclooxygenase-1 (Ovis aries, UniProt P05979); assay: biochemical; type: biochemical, ram; conditions: for Cox1 activity: screened at 3×10^-4 M
T2 construct: Cyclooxygenase-1 (from ram seminal vesicles); from tissue; host or cells: ram seminal vesicles; assay by Panlabs
T2 sequence (P05979 25-600): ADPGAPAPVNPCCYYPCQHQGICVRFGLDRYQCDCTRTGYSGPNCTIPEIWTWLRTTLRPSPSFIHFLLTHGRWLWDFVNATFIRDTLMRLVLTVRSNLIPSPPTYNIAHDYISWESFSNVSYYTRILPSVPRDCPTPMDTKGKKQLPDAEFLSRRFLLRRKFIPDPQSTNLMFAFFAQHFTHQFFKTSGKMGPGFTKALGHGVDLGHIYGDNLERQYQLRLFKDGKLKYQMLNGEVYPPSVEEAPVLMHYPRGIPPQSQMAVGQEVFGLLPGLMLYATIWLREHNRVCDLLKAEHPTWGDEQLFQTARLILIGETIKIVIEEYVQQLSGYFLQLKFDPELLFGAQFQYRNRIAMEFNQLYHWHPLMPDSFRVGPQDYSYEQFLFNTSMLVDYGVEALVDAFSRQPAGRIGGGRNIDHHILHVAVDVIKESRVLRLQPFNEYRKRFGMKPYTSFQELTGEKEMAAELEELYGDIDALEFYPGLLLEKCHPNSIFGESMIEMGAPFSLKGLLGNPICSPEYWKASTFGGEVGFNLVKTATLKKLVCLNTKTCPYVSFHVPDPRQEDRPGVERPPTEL
Description: The reaction was initiated by addition of arachidonic acid (100 mM) and terminated after 20 minutes incubation at 37° C. by addition of trichloroacetic acid (TCA).

Cyclooxygenase-2 = molecular target: T3, Cyclooxygenase-2 (Ovis aries, UniProt P79208); assay: biochemical; type: biochemical, sheep
T3 construct: Cyclooxygenase-2 (from sheep placenta); from tissue; host or cells: sheep placenta; assay by Panlabs
Description: The reaction is initiated by addition of arachidonic acid (100 mM) and terminated after 20 minutes incubation at 37° C. by addition of TCA.

5α-reductase [2] = conditions: cited from earlier work
5α-reductase type 1 = conditions: Table 1; read-out: IC50 for DHT inhibition, epithelial cells (type 1); cited from earlier work
5α-reductase type 2 = conditions: cited from earlier work
Type 1 5α-reductase [3] = conditions: Table 2, cited from earlier work; for IC50: read-out: IC50 for DHT, Type 1 5α-reductase
Type 1 5α-reductase [4] = conditions: cited from earlier work
Type 2 5α-reductase = conditions: cited from earlier work
5α-reductase [5] = conditions: rat, in vivo; cited from earlier work
5α-reductase [6] = conditions: in vivo; cited from earlier work
[7] = Table 8, read-out: 5 Lipoxygenase IC50 (Table 8)
[8] = Table 8, read-out: Cyclooxygenase-1 IC50 (Table 8)
[9] = Table 8, read-out: Cyclooxygenase-2 IC50 (Table 8)
[10] = Table 1, read-out: IC50 for DHT inhibition, stroma (type 2)
[11] = fibroblasts, read-out: IC50, inhibition of DHT formation in fibroblasts

T3 sequence (P79208 17-603): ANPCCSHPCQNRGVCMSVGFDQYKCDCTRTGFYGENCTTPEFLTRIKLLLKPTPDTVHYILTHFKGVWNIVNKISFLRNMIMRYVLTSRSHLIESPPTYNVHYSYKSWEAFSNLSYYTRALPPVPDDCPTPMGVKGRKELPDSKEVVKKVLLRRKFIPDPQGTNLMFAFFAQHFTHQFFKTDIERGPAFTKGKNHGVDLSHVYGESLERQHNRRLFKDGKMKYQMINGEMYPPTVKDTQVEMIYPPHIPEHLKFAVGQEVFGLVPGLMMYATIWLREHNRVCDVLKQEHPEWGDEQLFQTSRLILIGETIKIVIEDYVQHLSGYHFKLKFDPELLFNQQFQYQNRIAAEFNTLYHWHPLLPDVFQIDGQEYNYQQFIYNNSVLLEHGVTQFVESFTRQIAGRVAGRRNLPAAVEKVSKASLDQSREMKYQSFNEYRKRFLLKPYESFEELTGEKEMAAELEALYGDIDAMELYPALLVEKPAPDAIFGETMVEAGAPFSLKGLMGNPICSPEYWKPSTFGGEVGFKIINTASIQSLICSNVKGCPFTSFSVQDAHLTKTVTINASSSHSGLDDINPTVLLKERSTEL

Cc1cc(O)c2c(=O)c3c(O)cc(O)c4c5c(O)cc(O)c6c(=O)c7c(O)cc(C)c8c1c2c(c34)c(c78)c65 [hypericin]
hypericin content on storage ([1]; 60-140 °C, more than six weeks, powdered extract, tablet and juice): drop significantly

CCCCCCCCCCCC(=O)O [Lauric Acid]
IC50 (5-lipoxygenase; [7]): > 30 µM | 5-Lipo activity (5-lipoxygenase): Negative | IC50 (Cyclooxygenase-1; [8]): > 300 µM | Cox1 activity (Cyclooxygenase-1): Negative | Cox2 activity (Cyclooxygenase-2): Negative | IC50 (Cyclooxygenase-2; [9]): > 300 µM | 5α-reductase inhibitory activity (5α-reductase [2]): particularly potent inhibitors

CC/C=C\C/C=C\C/C=C\CCCCCCCC(=O)O [Linolenic Acid]
IC50 (5-lipoxygenase): 12 µM | Cox2 activity (Cyclooxygenase-2): Negative | IC50 (Cyclooxygenase-2; [9]): > 300 µM | 5α-reductase inhibitory activity (5α-reductase [2]): particularly potent inhibitors

CC(C)(C)NC(=O)[C@H]1CC[C@H]2[C@@H]3CC[C@H]4NC(=O)C=C[C@]4(C)[C@H]3CC[C@]12C [Finasteride]
IC50 (5α-reductase type 1): 400 nM | IC50 (5α-reductase type 2; [10]): 30 nM | IC50 (5α-reductase type 2; [11]): 30 nM | Inhibition type (Type 1 5α-reductase [3]): Competitive | IC50 (Type 1 5α-reductase [3]): 500 nM | type of inhibition (Type 1 5α-reductase [4]): competitive | IC50 (Type 1 5α-reductase [4]; read-out: inhibition, IC50): 400 nM | Ki (Type 1 5α-reductase [4]; read-out: inhibition, Ki): 108 nM | type of inhibition (Type 2 5α-reductase): (non)competitive | IC50 (Type 2 5α-reductase; read-out: inhibition, IC50): 10.7 nM | Ki (Type 2 5α-reductase; read-out: inhibition, Ki): 7.3 nM | inhibition of 5α-reductase in castrated rats (5α-reductase [5]): inhibits 5α-reductase | decrease in serum DHT levels (5α-reductase [6]): decrease in serum DHT levels

CCCCCCCCCCCC(=O)OCC [Ethyl laurate]
IC50 (5-lipoxygenase; [7]): > 30 µM | 5-Lipo activity (5-lipoxygenase): Negative | IC50 (Cyclooxygenase-1; [8]): > 300 µM | Cox1 activity (Cyclooxygenase-1): Negative | Cox2 activity (Cyclooxygenase-2): Negative | IC50 (Cyclooxygenase-2; [9]): > 300 µM | 5α-reductase inhibitory activity (5α-reductase [2]): markedly less effective

CCCCC/C=C\C/C=C\CCCCCCCC(=O)O [Linoleic Acid]
IC50 (5-lipoxygenase): > 30 µM | 5-Lipo activity (5-lipoxygenase): Negative | IC50 (Cyclooxygenase-1): > 300 µM | Cox1 activity (Cyclooxygenase-1): Negative | Cox2 activity (Cyclooxygenase-2): Negative | IC50 (Cyclooxygenase-2): > 300 µM | 5α-reductase inhibitory activity (5α-reductase [2]): particularly potent inhibitors

CCC(C)C(=O)[C@]12C(=O)[C@](CC=C(C)C)(C[C@H](CC=C(C)C)[C@@]1(C)CCC=C(C)C)C(=O)C(CC=C(C)C)=C2O (stereo partly shown) [adhyperforin]
time to degradation in oil preparations [1]: 14 days

CC(C)=CCCC1(C)C(CC=C(C)C)CC2(CC=C(C)C)C(=O)C(CC=C(C)C)=C(O)C1(C(=O)C(C)C)C2=O (stereo not shown) [hyperforin]
time to degradation in oil preparations [1]: 14 days

CCN(CC)C(=O)[C@H]1CC[C@H]2[C@@H]3CC[C@H]4N(C)C(=O)CC[C@]4(C)[C@H]3CC[C@]12C [4-MA]
IC50 (5α-reductase type 1): 20 nM | IC50 (5α-reductase type 2; [10]): 50 nM | IC50 (5α-reductase type 2; [11]): 50 nM | Inhibition type (Type 1 5α-reductase [3]): Competitive | IC50 (Type 1 5α-reductase [3]): 10 nM
